Source: patent US7064120B2, “Tricyclic pyridyl carboxamides and derivatives thereof tocolytic oxytocin receptor antagonists” (Wyeth, priority 2001, dated 2006)
pIC50: −log10 of the molar value.

Molecular target: T1, human vasopressin V1a receptor subtype (Homo sapiens, UniProt P37288)
T1 construct: host or cells: CHO cells, stably transfected (pZeoSV vector for the Thibonnier line)
Assay: Vasopressin binding in CHO cell membranes expressing human vasopressin V1a subtype receptors ([3H]Manning ligand radioligand binding)
Settings: for pIC50: value in parentheses
Procedure, shortened: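 Membranes from CHO cells expressing human V1a, 25–50 μg protein/well, incubated 60 min at room temperature with [3H]Manning ligand (20 μL of 8 nM stock) in 50 mM Tris-HCl pH 7.4 with BSA, MgCl2 and protease inhibitors. Filtration then scintillation counting; reported as % inhibition or IC50 (nM).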

T1 sequence (P37288 whole entry): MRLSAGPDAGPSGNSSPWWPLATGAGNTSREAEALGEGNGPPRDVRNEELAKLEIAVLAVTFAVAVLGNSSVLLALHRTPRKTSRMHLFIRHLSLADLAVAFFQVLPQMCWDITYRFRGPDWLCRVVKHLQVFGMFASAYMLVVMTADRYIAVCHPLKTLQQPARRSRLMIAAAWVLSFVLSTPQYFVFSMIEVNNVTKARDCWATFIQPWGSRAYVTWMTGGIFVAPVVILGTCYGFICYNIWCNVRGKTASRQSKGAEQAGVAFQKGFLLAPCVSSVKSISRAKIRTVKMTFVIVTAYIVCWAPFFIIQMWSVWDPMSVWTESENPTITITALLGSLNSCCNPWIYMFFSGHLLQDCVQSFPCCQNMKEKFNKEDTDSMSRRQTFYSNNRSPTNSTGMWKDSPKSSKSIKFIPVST

Cc1cc(C(=O)N2Cc3ccc(C(=O)N4CCN(c5ccncc5)CC4)n3Cc3ccccc32)ccc1-c1ccccc1C(F)(F)F [Example 1]
V1a % inhibition @ 100 nM (100 nM): 9%

Cc1cc(C(=O)N2Cc3ccc(C(=O)N4CCN(Cc5ccc[n+]([O-])c5)CC4)n3Cc3ccccc32)ccc1-c1ccccc1C(F)(F)F [Example 2, 10-{[2-Methyl-2′-trifluoromethyl-[1,1′-biphenyl]-4-yl]carbonyl}-3-({4-[(1-oxidopyridin-3-yl)methyl]piperazin-1-yl}carbonyl)-10,11-dihydro-5H-pyrrolo[2,1-c][1,4]benzodiazepine]
pIC50: 5.50

Cc1cc(C(=O)N2Cc3ccc(C(=O)N4CCN(Cc5ccc[n+]([O-])c5C)CC4)n3Cc3ccccc32)ccc1-c1ccccc1C(F)(F)F [Example 3, 3-({4-[(2-Methyl-1-oxidopyridin-3-yl)methyl]piperazin-1-yl}carbonyl)-10-{[2-methyl-2′-trifluoromethyl-[1,1′-biphenyl]-4-yl]carbonyl}-10,11-dihydro-5H-pyrrolo[2,1-c][1,4]benzodiazepine]
pIC50: < 5.52

Cc1cc(C(=O)N2Cc3ccc(C(=O)N(C)Cc4ccc[n+]([O-])c4)n3Cc3ccccc32)ccc1-c1ccccc1C(F)(F)F [Example 4, N-Methyl-10-{[2-methyl-2′-trifluoromethyl-[1,1′-biphenyl]-4-yl]carbonyl}-N-[(1-oxidopyridin-3-yl)methyl]-10,11-dihydro-5H-pyrrolo[2,1-c][1,4]benzodiazepine-3-carboxamide]
pIC50: 6.10

COc1cc(-c2ccccc2C(F)(F)F)c(Cl)cc1C(=O)N1Cc2ccc(C(=O)N(C)Cc3cccnc3)n2Cc2ccccc21 [Example 5, 10-{[6-Chloro-3-methoxy-2′-trifluoromethyl-[1,1′-biphenyl]-4-yl]carbonyl}-N-methyl-N-(pyridin-3-ylmethyl)-10,11-dihydro-5H-pyrrolo[2,1-c][1,4]benzodiazepine-3-carboxamide]
pIC50: < 5.52

COc1cc(-c2ccccc2Cl)c(Cl)cc1C(=O)N1Cc2ccc(C(=O)N(C)Cc3cccnc3)n2Cc2ccccc21 [Example 6, 10-[(2′,6-Dichloro-3-methoxy-[1,1′-biphenyl]-4-yl)carbonyl]-N-methyl-N-(pyridin-3-ylmethyl)-10,11-dihydro-5H-pyrrolo[2,1-c][1,4]benzodiazepine-3-carboxamide]
pIC50: 6.03

COc1cc(C(=O)N2Cc3ccc(C(=O)N(C)Cc4cccnc4)n3Cc3ccccc32)ccc1-c1ccccc1C(F)(F)F [Example 7, 10-{[2-Methoxy-2′-trifluoromethyl-[1,1′-biphenyl]-4-yl]carbonyl}-N-methyl-N-(pyridin-3-ylmethyl)-10,11-dihydro-5H-pyrrolo[2,1-c][1,4]benzodiazepine-3-carboxamide]
pIC50: 6.10

COc1cc(C(=O)N2Cc3ccc(C(=O)N(C)Cc4ccc[n+]([O-])c4)n3Cc3ccccc32)ccc1-c1ccccc1C(F)(F)F [Example 8, 10-{[2-Methoxy-2′-trifluoromethyl-[1,1′-biphenyl]-4-yl]carbonyl}-N-methyl-N-(1-oxo-pyridin-3-ylmethyl)-10,11-dihydro-5H-pyrrolo[2,1-c][1,4]benzodiazepine-3-carboxamide]
pIC50: 6.10

COc1cccc(-c2ccc(C(=O)N3Cc4ccc(C(=O)N(C)CCc5ccccn5)n4Cc4ccccc43)cc2C)c1 [Example 62, 10-[(3′-Methoxy-2-methyl-[1,1′-biphenyl]-4-yl)carbonyl]-N-methyl-N-[2-(2-pyridinyl)ethyl]-10,11-dihydro-5H-pyrrolo[2,1-c][1,4]benzodiazepine-3-carboxamide]
pIC50: 6.75

COc1cc(-c2ccccc2C)c(Cl)cc1C(=O)N1Cc2ccc(C(=O)N(C)CCc3ccccn3)n2Cc2ccccc21 [Example 63, 10-[(6-Chloro-3-methoxy-2′-methyl-[1,1′-biphenyl]-4-yl)carbonyl]-N-methyl-N-[2-(2-pyridinyl)ethyl]-10,11-dihydro-5H-pyrrolo[2,1-c][1,4]benzodiazepine-3-carboxamide]
pIC50: 6.56

COc1ccccc1-c1ccc(C(=O)N2Cc3ccc(C(=O)N(C)CCc4ccccn4)n3Cc3ccccc32)cc1C [Example 65, 10-[(2′-Methoxy-2-methyl-[1,1′-biphenyl]-4-yl)carbonyl]-N-methyl-N-[2-(2-pyridinyl)ethyl]-10,11-dihydro-5H-pyrrolo[2,1-c][1,4]benzodiazepine-3-carboxamide]
inhibition at 0.1 µM (100 nM): 25%

Cc1ccccc1-c1ccc(C(=O)N2Cc3ccc(C(=O)N(C)CCc4ccccn4)n3Cc3ccccc32)cc1C [Example 66, 10-[(2,2′-Dimethyl-[1,1′-biphenyl]-4-yl)carbonyl]-N-methyl-N-[2-(2-pyridinyl)ethyl]-10,11-dihydro-5H-pyrrolo[2,1-c][1,4]benzodiazepine-3-carboxamide]
inhibition at 0.1 µM (100 nM): 58%

COc1ccccc1-c1ccc(C(=O)N2Cc3ccc(C(=O)N(C)CCc4ccccn4)n3Cc3ccccc32)cc1 [Example 67, 10-[(2′-Methoxy-[1,1′-biphenyl]-4-yl)carbonyl]-N-methyl-N-[2-(2-pyridinyl)ethyl]-10,11-dihydro-5H-pyrrolo[2,1-c][1,4]benzodiazepine-3-carboxamide]
inhibition at 0.1 µM (100 nM): 40%

Cc1ccccc1-c1ccc(C(=O)N2Cc3ccc(C(=O)N(C)CCc4ccccn4)n3Cc3ccccc32)cc1 [Example 68, N-Methyl-10-[(2′-methyl-[1,1′-biphenyl]-4-yl)carbonyl]-N-[2-(2-pyridinyl)ethyl]-10,11-dihydro-5H-pyrrolo[2,1-c][1,4]benzodiazepine-3-carboxamide]
inhibition at 0.1 µM (100 nM): 81%

COc1cc(C(=O)N2Cc3ccc(C(=O)N(C)CCc4ccccn4)n3Cc3ccccc32)ccc1-c1ccccc1C [Example 69, 10-[(2-Methoxy-2′-methyl-[1,1′-biphenyl]-4-yl)carbonyl]-N-methyl-N-[2-(2-pyridinyl)ethyl]-10,11-dihydro-5H-pyrrolo[2,1-c][1,4]benzodiazepine-3-carboxamide]
inhibition at 0.1 µM (100 nM): 72%

COc1cccc(-c2cc(OC)c(C(=O)N3Cc4ccc(C(=O)N(C)CCc5ccccn5)n4Cc4ccccc43)cc2Cl)c1 [Example 70, 10-[(6-Chloro-3,3′-dimethoxy-[1,1′-biphenyl]-4-yl)carbonyl]-N-methyl-N-[2-(2-pyridinyl)ethyl]-10,11-dihydro-5H-pyrrolo[2,1-c][1,4]benzodiazepine-3-carboxamide]
inhibition at 0.1 µM (100 nM): 8%

COc1cc(C(=O)N2Cc3ccc(C(=O)N(C)CCc4ccccn4)n3Cc3ccccc32)ccc1-c1cccc2ccccc12 [Example 71, 10-[3-Methoxy-4-(naphthalen-1-yl)benzoyl]-N-methyl-N-[2-(2-pyridinyl)ethyl]-10,11-dihydro-5H-pyrrolo[2,1-c][1,4]benzodiazepine-3-carboxamide]
inhibition at 0.1 µM (100 nM): 20%

COc1cccc(-c2ccc(C(=O)N3Cc4ccc(C(=O)N(C)CCc5ccccn5)n4Cc4ccccc43)cc2OC)c1 [Example 72, 10-[(2,3′-Dimethoxy-[1,1′-biphenyl]-4-yl)carbonyl]-N-methyl-N-[2-(2-pyridinyl)ethyl]-10,11-dihydro-5H-pyrrolo[2,1-c][1,4]benzodiazepine-3-carboxamide]
inhibition at 0.1 µM (100 nM): 54%

CN(CCc1ccccn1)C(=O)c1ccc2n1Cc1ccccc1N(C(=O)c1ccc(-c3cccc4ccccc34)cc1Cl)C2 [Example 73, 10-[2-Chloro-4-(naphthalen-1-yl)benzoyl]-N-methyl-N-[2-(2-pyridinyl)ethyl]-10,11-dihydro-5H-pyrrolo[2,1-c][1,4]benzodiazepine-3-carboxamide]
inhibition at 0.1 µM (100 nM): 6%

Cc1cc(C(=O)N2Cc3ccc(C(=O)N(C)CCc4ccccn4)n3Cc3ccccc32)ccc1-c1ccccc1C(F)(F)F [Example 74, N-Methyl-10-{[2-methyl-2′-trifluoromethyl-[1,1′-biphenyl]-4-yl]carbonyl}-N-[2-(2-pyridinyl)ethyl]-10,11-dihydro-5H-pyrrolo[2,1-c][1,4]benzodiazepine-3-carboxamide]
inhibition at 0.1 µM (100 nM): 63%

COc1ccccc1-c1ccc(C(=O)N2Cc3ccc(C(=O)N4CCN(c5ccccn5)CC4)n3Cc3ccccc32)cc1C [Example 75, {10-[(2′-Methoxy-2-methyl-[1,1′-biphenyl]-4-yl)carbonyl]-10,11-dihydro-5H-pyrrolo[2,1-c][1,4]benzodiazepin-3-yl}[4-(2-pyridinyl)-1-piperazinyl]methanone]
inhibition at 0.1 µM (100 nM): -1%

Cc1ccccc1-c1ccc(C(=O)N2Cc3ccc(C(=O)N4CCN(c5ccccn5)CC4)n3Cc3ccccc32)cc1C [Example 76, {10-[(2,2′-Dimethyl-[1,1′-biphenyl]-4-yl)carbonyl]-10,11-dihydro-5H-pyrrolo[2,1-c][1,4]benzodiazepin-3-yl}[4-(2-pyridinyl)-1-piperazinyl]methanone]
inhibition at 0.1 µM (100 nM): 11%

COc1cccc(-c2ccc(C(=O)N3Cc4ccc(C(=O)N5CCN(c6ccccn6)CC5)n4Cc4ccccc43)cc2C)c1 [Example 77, {10-[(3′-Methoxy-2-methyl-[1,1′-biphenyl]-4-yl)carbonyl]-10,11-dihydro-5H-pyrrolo[2,1-c][1,4]benzodiazepin-3-yl}[4-(2-pyridinyl)-1-piperazinyl]methanone]
inhibition at 0.1 µM (100 nM): 5%

COc1ccccc1-c1ccc(C(=O)N2Cc3ccc(C(=O)N4CCN(c5ccccn5)CC4)n3Cc3ccccc32)cc1 [Example 78, {10-[(2′-Methoxy-[1,1′-biphenyl]-4-yl)carbonyl]-10,11-dihydro-5H-pyrrolo[2,1-c][1,4]benzodiazepin-3-yl}[4-(2-pyridinyl)-1-piperazinyl]methanone]
inhibition at 0.1 µM (100 nM): 6%

Cc1ccccc1-c1ccc(C(=O)N2Cc3ccc(C(=O)N4CCN(c5ccccn5)CC4)n3Cc3ccccc32)cc1 [Example 79, {10-[(2′-Methyl-[1,1′-biphenyl]-4-yl)carbonyl]-10,11-dihydro-5H-pyrrolo[2,1-c][1,4]benzodiazepin-3-yl}[4-(2-pyridinyl)-1-piperazinyl]methanone]
inhibition at 0.1 µM (100 nM): 18%
